According to patent US8252832B2, “Kinesin inhibitors as cancer therapeutics” (Novartis AG, priority 2007, dated 2012):
Values joined by “and” are separate entries in the source; they are usually repeats but may differ in a detail not shown here. Equal values may be shown once. Read-outs that look alike come from different tables or passages of the source.

Tests used:
KB8.5 tumor xenograft = KB8.5 tumor xenograft model (P-gp expressing), tumor response; type: in vivo, mouse; details: q4d × 3
Experimental: Cells were cultured for fewer than 10 passages prior to use. […] All data were expressed as mean and SEM. Between-groups comparisons for final tumor measurements were performed using the one-way ANOVA pair-wise analysis. Significance was determined using Kruskal-Wallis one-way ANOVA on Ranks, followed by appropriate post-hoc test (Dunn's Method or Tukey Test) for multiple pair-wise comparisons. Statistical analysis was carried out using SigmaStat (Systat Software Inc., San Jose, Calif.).

[1] = Subcutaneous MV4; 11 tumor xenograft model, host response; type: in vivo, mouse
Experimental: (§1) Subcutaneous tumor efficacy studies were performed using outbred athymic nu/nu mice approximately 6-8 weeks old (Charles River Laboratories, Hollister, Calif.). The efficacy study in the disseminated disease model was performed using immunodeficient NOD-SCID female mice approximately 7-8 weeks old (Jackson Laboratories, Bar Harbor, Me.). […] Routine animal care and assurance of welfare were as described above.
(§2) The compound IIa (free base) and SB-715992 (free base) were formulated in 20% Captisol for a dose volume of 8 mL/kg. Doses were adjusted to each animal's body weight.
(§3) For the two efficacy evaluations in the subcutaneous tumor model, 10 million cells combined in a 1:1 mixture of HBSS and Matrigel™ were injected subcutaneously in the right flank in a total volume of 0.2 mL/mouse. […] Tumor volume was calculated as (L×W2)/2.

[2] = tested on: MV4; 11 human AML subcutaneous xenograft tumors; experiment: Subcutaneous MV4; 11 tumor xenograft model, tumor response; type: in vivo, mouse
Experimental: as §1
Human MV4; 11 acute myelogenous leukemia cells were obtained from American Tissue Culture Collection (catalog #CRL-9591, Rockville, Md.) and tested to be free of Mycoplasma sp. and murine viruses in the IMPACT1 PCR assay panel (RADIL, University of Missouri, Columbia, Mo.). For the disseminated disease model, a stable pool of MV4; 11 cells expressing the luciferase gene was received from Fangxian Sun at the Genomics Institute of the Novartis Research Foundation in San Diego, Calif. (MV4; 11-luc). The MV4; 11 cells were grown in Iscove's modified Dulbecco's medium (Mediatech Inc., catalog #15-016-CV) supplemented with 10% fetal bovine serum (JRH Biosciences, catalog #12003-1000M), 4 mM L-glutamine and 5 ng/mL recombinant human […] (GM-CSF) (R&D Systems, catalog #215-GM). MV4; 11-luc were grown in the same media, but with the addition of 2 micrograms/mL of puromycin for selection of luciferase expression. These cells were grown as suspension cultures, maintained at 37° C. in a humidified atmosphere containing 5% carbon dioxide. Cells were cultured for fewer than 10 passages prior to use. Cells were harvested at approximately 2 million cells/mL, and centrifuged at ˜800×g for 5 minutes at 4° C. and then resuspended in a cold HBSS (Mediatech Inc., catalog #21-021-CV) at a concentration of 25 million cells/mL (containing 50% Matrigel™, BD Biosciences, catalog #354234) for implantation subcutaneously (injection volume of 0.2 mL) or at a concentration of 100 million cells/mL for implantation intravenously (i.v.) via the tail vein (injection volume of 0.1 mL). Mice were irradiated with 3 gray for 3 minutes one day prior to the i.v. cell implant.
as §2, §3

[3] = q4d × 3
Experimental: Experiments were performed using outbred athymic nu/nu mice (Charles River Laboratories) approximately 6-8 weeks old. Upon arrival, animals received a subcutaneous microchip implant (AVID, Folsom, La.) in the subscapular region for identification of individuals. Animals were allowed to acclimatize for 1 week before any experimental procedures began.
Compound IIa, compound IIc, compound IIa (shown below), and SB-715992 were formulated in a Captisol®-based formulation. Doses were administered intravenously (i.v.) and adjusted to each animal's body weight. Formulations were made once at the beginning of study and stored at room temperature. Clinical grade paclitaxel was purchased pre-mixed in a cremophor-based vehicle (Mayne Pharma, now Hospira, Lake Forest, Ill., catalog #NDC-6170334209) and diluted in sterile saline to provide a dose volume of 16 mL/kg for a 30 mg/kg dose administered intraperitoneally (i.p.)
For the efficacy studies, mice were enrolled with a mean tumor volume of approximately 300 mm^3. Tumor xenografts were measured in two dimensions (L and W) with digital calipers twice weekly from the start of dosing on Day 0. Tumor volume was calculated as (L×W^2)/2. Body weights were measured twice weekly and clinical observations were recorded daily. Tumor volume and body weights were captured and stored by StudyDirector software (StudyLog, South San Francisco, Calif.).

[4] = HCT15 tumor xenograft model, host response; type: in vivo, mouse
Experimental: Routine animal care and assurance of welfare were as described above.
Treatments for the efficacy studies were initiated 10 days following tumor cell implantation when tumors were approximately 300 mm^3. Compound IIa and SB-715992 were administered intravenously (i.v.) via the tail vein in a volume of 8 mL/kg at the doses indicated. Paclitaxel was administered intraperitoneally (i.p.) in a volume of 16 mL/kg at 30 mg/kg.
Tumor volume was calculated as (L×W2)/2. […] Data was analyzed as described above.

[5] = Study 2, 1.8 mg/kg, Q4d × 3, i.v
[6] = Study 2, 1.8 mg/kg, Q4d × 3, i.v, D10
[7] = Study 2, 3.5 mg/kg, Q4d × 3, i.v
[8] = Study 2, 3.5 mg/kg, Q4d × 3, i.v, D3
[9] = Study 2, 7.5 mg/kg, Q4d × 3, i.v
[10] = Study 2, 7.5 mg/kg, Q4d × 3, i.v, D10

In the case of CC(=O)O[C@H]1C(=O)[C@@]2(C)[C@H]([C@H](OC(=O)c3ccccc3)[C@]3(O)C[C@H](OC(=O)[C@H](O)[C@@H](NC(=O)c4ccccc4)c4ccccc4)C(C)=C1C3(C)C)[C@]1(OC(C)=O)CO[C@@H]1C[C@@H]2O [Paclitaxel, reference compound], the “ΔT/ΔC, Day 11 (%)” value (KB8.5 tumor xenograft; 30 mg/kg, i.p.) is reported as 78%, the “ΔT/ΔC, Day 11 (%)” value (KB8.5 tumor xenograft; Table 14 study, 30 mg/kg, i.p.) is reported as 87% and the “ΔT/ΔC, Day 11 (%)” value (KB8.5 tumor xenograft; Table 15 study, 30 mg/kg, i.p., not statistically different from vehicle) is reported as 60%. For the same molecule, the “Survival (alive/total)” value ([1]; 1 mg/kg, q4d × 3, i.p.) was 9/9, the “CR (complete tumor regressions)” value ([2]; 1 mg/kg, q4d × 3, i.p.) was 7 and the “Δ Tumor volume, Day 24” value ([2]; 1 mg/kg, q4d × 3, i.p.) was −151 ± 63 mm^3. The “% Max Regression (Day)” value ([2]; 1 mg/kg, q4d × 3, i.p., D46) was 75%, the “CR (complete tumor regressions)” value ([2]; 1 mg/kg, q4d × 3, i.p., listed as paclitaxel) was 7/9 and the “Survival (alive/total)” value ([3]; 30 mg/kg, i.p.) was 9/9. For the same molecule, the “Survival (alive/total)” value ([3]; Table 14 study, 30 mg/kg, i.p.) was 9/9, the “Survival (alive/total)” value ([3]; Table 15 study, 30 mg/kg, i.p.) was 10/10 and the “Survival (alive/total)” value ([4]; 30 mg/kg, Q4d × 3, i.p.) was 9/9.
With Cc1ccc(C(=O)N(CCCN)[C@@H](c2nc3cc(Cl)ccc3c(=O)n2Cc2ccccc2)C(C)C)cc1 [SB-715992, Ispinesib, reference compound] the “ΔT/ΔC, Day 11 (%)” value (KB8.5 tumor xenograft; 15 mg/kg, i.v.) was 56%, the “ΔT/ΔC, Day 11 (%)” value (KB8.5 tumor xenograft; Table 14 study, 15 mg/kg, i.v.) was 77% and the “ΔT/ΔC, Day 11 (%)” value (KB8.5 tumor xenograft; Table 15 study, 15 mg/kg, i.v., not statistically different from vehicle) was 60%. For the same molecule, the “Survival (alive/total)” value ([1]; 15 mg/kg, q4d × 3, i.v., (body weight loss)) was 7/9 (body, the “% Max. Δ body weight, (Day)” value ([1]; 15 mg/kg, q4d × 3, i.v., D3) was −5.6 ± 1.1% and the “Max Δ body weight (g) (Day)” value ([1]; 15 mg/kg, q4d × 3, i.v., D3) was -1.4 ± 0.3 g. The “Survival (alive/total)” value [1, 5] was 9/9, the “% Max. Δ body weight, (Day)” value [1, 6] was 2.0 ± 1.0, % and the “Max. Δ body weight (g) (Day)” value [1, 6] was 0.5 ± 0.4, g. For the same molecule, the “Survival (alive/total)” value [1, 7] was 9/9, the “% Max. Δ body weight, (Day)” value [1, 8] was 0.7 ± 0.3, % and the “Max. Δ body weight (g) (Day)” value [1, 8] was 0.2 ± 0.3, g. The “Survival (alive/total)” value [1, 9] was 9/9, the “% Max. Δ body weight, (Day)” value [1, 10] was −1.4 ± 1.3, % and the “Max. Δ body weight (g) (Day)” value [1, 10] was −0.4 ± 0.8, g. For the same molecule, the “CR (complete tumor regressions)” value ([2]; 15 mg/kg, q4d × 3, i.v.) was 6/9 and 6, the “Δ Tumor volume, Day 24” value ([2]; 15 mg/kg, q4d × 3, i.v.) was −211 ± 28 mm^3 and the “% Max Regression (Day)” value ([2]; 15 mg/kg, q4d × 3, i.v., D60) was 98%. For the same molecule, the “CR (complete tumor regressions)” value [2, 5] was 0, the “Δ Tumor volume, Day 21” value [2, 5] was 339 ± 218 mm^3 and the “ΔT/ΔC, Day 21 (%)” value [2, 5] was 59%. For the same molecule, the “CR (complete tumor regressions)” value [2, 7] was 0, the “Δ Tumor volume, Day 21” value [2, 7] was 251 ± 132 mm^3 and the “ΔT/ΔC, Day 21 (%)” value [2, 7] was 44%. For the same molecule, the “% Max. Regression (Day)” value ([2]; Study 2, 3.5 mg/kg, Q4d × 3, i.v, D10) was 41 (D10) %, the “CR (complete tumor regressions)” value [2, 9] was 3 and the “Δ Tumor volume, Day 21” value [2, 9] was −204 ± 20 mm^3. For the same molecule, the “% Max. Regression (Day)” value ([2]; Study 2, 7.5 mg/kg, Q4d × 3, i.v, D31) was 75 (D31) %, the “Survival (alive/total)” value ([3]; 15 mg/kg, i.v.) was 9/9 and the “% Max. Δ body weight, (Day)” value ([3]; 15 mg/kg, i.v., D7) was 4 (D7) %. For the same molecule, the “Survival (alive/total)” value ([3]; Table 14 study, 15 mg/kg, i.v.) was 9/9, the “% Max. Δ body weight, (Day)” value ([3]; Table 14 study, 15 mg/kg, i.v., D4) was −1 (D4) % and the “Survival (alive/total)” value ([3]; Table 15 study, 15 mg/kg, i.v.) was 10/10. For the same molecule, the “% Max. Δ body weight, (Day)” value ([3]; Table 15 study, 15 mg/kg, i.v., D11) was −3 (D11) %, the “Survival (alive/total)” value ([4]; 7.5 mg/kg, q4d × 3, i.v) was 9/9 and the “Max. Δ body weight (Day)” value ([4]; 7.5 mg/kg, q4d × 3, i.v, D8) was 0.6 ± 0.2 g. The “Max. Δ body weight (Day) (%)” value ([4]; 7.5 mg/kg, q4d × 3, i.v, D8) was 2.6 ± 1.0%, the “Survival (alive/total)” value ([4]; 15 mg/kg, q4d × 3, i.v.) was 9/9 and the “Max. Δ body weight (Day)” value ([4]; 15 mg/kg, q4d × 3, i.v, D10) was -1.2 ± 0.4 g.
